Data reported in patent US20170015696A1, “SOLID STATE FORMS OF SOFOSBUVIR” (RATIOPHARM GMBH, priority 2014, published 2017).

Assay: Storage stability of the solid state form at ambient conditions
Type: physicochemical
Details: stored at ambient conditions (e.g., 1 atmosphere at RT)
Text: Form A has certain advantageous properties as discussed above. Particularly, form A is stable for a period of 16 months when stored at ambient conditions (e.g., 1 atmosphere at RT).

CC(C)OC(=O)[C@H](C)N[P@](=O)(OC[C@H]1O[C@@H](n2ccc(=O)[nH]c2=O)[C@](C)(F)[C@@H]1O)Oc1ccccc1 [form A, Sofosbuvir]
period for which the form is stable when stored: 16 months
